Data published in patent US5332743A, “Benzyl and benzhydryl alcohols” (priority 1992, dated 1994).
Where two headings read alike, the source gives them in different places.

How the values were obtained:
[1] = system: Conditioned Avoidance Responding (Rat); assay: Block of Conditioned Avoidance Responding (Rat) test (CAR); assay type: in vivo; settings: for change in vivo at 5 mg/kg: read-out: CAR 5 mg/kg (IP) (mean % change in CAR); for Escape Loss (% failures to escape, group mean): at CAR 5 mg/kg IP
Text: Block of Conditioned Avoidance Responding (Rat)
Apparatus: Rat operant chambers, housed within sound attenuated booths, both from Capden Instruments Ltd., were used in this test. The test chamber (8" H×90-3/8" W×9" D) is constructed of aluminum and plexiglass with floor grid bars of stainless-steel (1/8" O.D.) spaced 9/16" apart. A stainless-steel operation level 1-1/2" wide projects 3/4" into the chamber and is positioned 2-2/8" above the grid floor. The shock stimulus is delivered via the grid floor by a Coulbourn Instruments solid state module. The parameters of the test and the collection of data are controlled automatically.
The rats are trained for two weeks to approach criterion levels in the avoidance test (90% avoidance rate). One-hour training sessions are run at about the same time each day for four or five days a week. The training session consists of 120 trials, with the conditioned stimuli presented every 30 seconds. A trail begins with presentation of the conditioned stimuli (a light and a tone). If the rat responds by depressing the operant lever during the 15-second presentation of the conditioned stimuli, the trial is terminated and the animal is credited with a CAR. Failure to respond during the conditioned stimuli causes the presentation of the unconditioned stimulus, a 0.7 mA shock which is accompanied by a light and tone for […]. If the rat depressed the lever within the ten-second period, the shock and trial are terminated and an escape response recorded. If the rat fails to depress the lever during the UCS (shock), the trial is terminated after ten seconds of shock and the absence of a response is scored as a failure to escape. Intertrial level presses have no effect. If a rat performs at the 90% CAR level for two weeks, it is then run twice a week o the test schedule (see below) until baseline performance stabilized.
The percent change in CAR on the drug treatment day compared to vehicle pretreatment day is the key measure. The percent change (% change) in CAR is determined using the following formula:
% change CAR=((Day 2% CAR/Day 1% CAR)×100)-100
A negative number indicates a blockade of CAR, whereas a positive number would indicate increased CAR. The test results are reported as the mean % change for the group of rats. […] Failure to escape was calculated for each animal as follows:
% Failures=# of Failures to Escape/# of trials
The % failures, viz., loss of escape, is also reported as a group mean. Failures to escape are monitored closely and a session is terminated if ten failures occurred.

dopamine D2 receptor = target: T1, dopamine D2 receptor (Rattus norvegicus, UniProt P61169); assay: Receptor Binding Assay: dopamine D2 binding, 3H-spiperone, striatal P2 fraction; settings: 3H-spiperone 0.05 nM, 45 min at 37° C., read-out: D-2 Binding K-I
T1 construct: P2 fraction (synaptosomal membranes) prepared from male, Wistar rats; from tissue; host or cells: striatum of male Wistar rats, P2 fraction (synaptosomal membranes)
Experimental: The dopamine D2 binding activity of compounds was determined using a P2 fraction (synaptosomal membranes) prepared from male, Wistar rats. […] The data from this assay were analyzed by calculating the percent inhibition of the binding of the tritiated ligands by given concentrations of the test compound. Ki values, where given, were obtained from the logit analysis of concentration-inhibition curves.

[2] = rat, 5 mg/kg IP, negative number = blockade of CAR, -20% is the minimum for active

T1 sequence (P61169 whole entry): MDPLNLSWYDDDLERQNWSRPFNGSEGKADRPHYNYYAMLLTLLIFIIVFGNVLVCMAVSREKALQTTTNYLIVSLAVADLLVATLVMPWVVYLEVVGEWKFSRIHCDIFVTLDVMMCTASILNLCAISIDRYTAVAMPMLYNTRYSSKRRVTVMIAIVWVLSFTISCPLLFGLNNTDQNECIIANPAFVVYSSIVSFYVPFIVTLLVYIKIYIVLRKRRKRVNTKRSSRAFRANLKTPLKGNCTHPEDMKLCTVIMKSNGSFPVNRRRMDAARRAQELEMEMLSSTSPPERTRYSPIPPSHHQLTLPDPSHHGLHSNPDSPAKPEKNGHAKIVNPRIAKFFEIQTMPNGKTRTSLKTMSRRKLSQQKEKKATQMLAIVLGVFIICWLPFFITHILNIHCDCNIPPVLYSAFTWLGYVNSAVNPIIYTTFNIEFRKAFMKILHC

| Compound | Escape Loss (% failures to escape, group mean) ([1]; rat) | Ki (dopamine D2 receptor) | change in vivo at 5 mg/kg [1, 2] | change in vivo at 5 mg/kg ([1]; Rattus norvegicus, ip) |
| --- | --- | --- | --- | --- |
| COc1ccccc1N1CCN(Cc2cccc(C(O)c3ccccc3)c2)CC1 (stereo not drawn) [Compound 5, [3-[4-(2-Methoxyphenyl)-1-piperazinyl]methyl]-α-phenylbenzenemethanol] | 2% | 87 nM | -64.6% | – |
| CC(C)Oc1ccccc1N1CCN(Cc2cccc(CO)c2)CC1 [Compound 4, 1-(3-Hydroxymethylphenyl)methyl-4-[2-(1-methylethoxy)phenyl]-piperazine] | 13% | 302 nM | – | -89.2% |
| CCC(C)(O)c1cccc(CN2CCN(c3ccccc3OC)CC2)c1 (stereo not drawn) [Compound 6, [3-[4-(2-Methoxyphenyl)-1-piperazinyl]methyl]-α-methyl-α-ethylbenzenemethanol] | 2% | 198 nM | -86% | – |
| COc1ccccc1N1CCN(Cc2cccc(C(O)C3CCCCC3)c2)CC1 (stereo not drawn) [Compound 8, [3-[4-(2-Methoxyphenyl)-1-piperazinyl]methyl]-α-(cyclohexyl)-benzenemethanol] | 2% | 16 nM | -92.9% | – |

Further molecules by falling Ki (dopamine D2 receptor), results first:

| Escape Loss (% failures to escape, group mean) ([1]; rat) | Ki (dopamine D2 receptor) | Compound | change in vivo at 5 mg/kg [1, 2] | change in vivo at 5 mg/kg ([1]; Rattus norvegicus, ip) |
| --- | --- | --- | --- | --- |
| 12% | 90 nM | COc1ccccc1N1CCN(Cc2cccc(C(O)C(C)C)c2)CC1 (stereo not drawn) [Compound 7, [3-[4-(2-Methoxyphenyl)-1-piperazinyl]methyl]-α-(1-methylethyl)-benzenemethanol] | -98.8% | – |
| 32% | 53 nM | COc1ccccc1N1CCN(Cc2ccc(C(O)c3ccccc3)cc2)CC1 (stereo not drawn) [Compound 9, [4-[4-(2-Methoxyphenyl)-1-piperazinyl]methyl]-α-phenylbenzenemethanol] | -99.4% | – |
